# From US20230115907A1, “HETEROCYCLIC COMPOUND AND PHARMACEUTICAL COMPOSITION, PREPARATION METHOD, INTERMEDIATE AND USE THEREOF” (EVOPOINT BIOSCIENCES CO., LTD., priority 2019, published 2023)
# pIC50: −log10 of the molar value.
# How the values were obtained:
# HCC70 cells = assay: Inhibition of cell proliferation, CellTiter-Glo, HCC70; assay type: cell-based; conditions: Homo sapiens, HCC70, 72 h
# Method: (§1) The compounds were each prepared with 100% DMSO into 10 mM mother liquor.
# (§2) HCC70 cells and OVCAR3 cells were digested and counted. Cells were diluted to an appropriate concentration according to cell density. 100 μL of cells were added to each well of a 96-well plate. Medium wells served as blank control (Min). The cells were incubated overnight in an incubator at 37° C./5% CO2.
# (§3) A 200-fold stock solution of a compound was prepared with DMSO, and the compound was diluted with growth medium to a 3-fold stock solution, i.e., […] of each of 200-fold stock solutions of compound at different concentrations was added to 197 μL of medium. 50 μL of diluted compound was added to each well and the mixture was incubated at 37° C./5% CO2 for 72 h.
# (§4) The 96-well plate was equilibrated to room temperature before detection. 40 μL of CellTiter-Glo solution was added to each well. The mixture was mixed for 2 min using a horizontal shaker to induce cell lysis. The mixture was incubated at room temperature for 60 min to stabilize […] signals. Fluorescence values were read on ENVISION.
# (§5) (1) Data was analyzed by GraphPad Prism 5
# (§6) (2) % inhibition rate=(maximum signal−compound signal)/(maximum signal−minimum signal)×100
# (§7) (3) Maximum signal: signal of DMSO well
# (§8) (4) Minimum signal: signal of medium well
# (§9) The effect of SZ-015200, SZ-015256 and SZ-015268 on cell proliferation after incubation with HCC70, OVCAR-3, HCT116 and HCC1806 cells for 3 days was detected according to the method described in Efficacy Example 2, and the results are shown in Table 3.
# OVCAR3 cells = assay: Inhibition of cell proliferation, CellTiter-Glo, OVCAR3; assay type: cell-based; conditions: Homo sapiens, OVCAR-3, 72 h
# Method: as §1, §2, §3, §4, §5, §6, §7, §8, §9
# CDK7/Cyclin H/MAT1 = CDK7/Cyclin H/MAT1 (Homo sapiens, UniProt P50613); assay: CDK7 inhibition, mobility shift assay
# Method: The initial concentration of compound was 10 μM, and the compound was 3-fold diluted to obtain 10 concentrations. Duplicate wells were set for the assay, and the pre-incubation time of compound and enzyme was 60 min.
# Compound powders were dissolved in 100% DMSO to prepare 10 mM stock solution, which was 3-fold diluted with DMSO, with 0.5 mM as the initial concentration, to obtain 10 concentration gradients of compound solutions.
# (1) Compound at each concentration was 8.3-fold diluted with ddH2O, and then 2 μL of each compound solution and positive control were added to a 384-well plate.
# (2) 5 μL of a kinase working solution (CDK7/Cyclin H/MAT1) was added to the compound wells and positive control wells to make the final concentration of CDK7 be 3 nM.
# (3) The plate was pre-incubated at room temperature for 60 min.
# (5) The 384-well plate was incubated at 27° C. for 36 min.
# (6) 4 μL of 80 mM EDTA was added to terminate the reaction.
# (7) The conversion rates were read using a Caliper EZ Reader II.
# HCT116 cells = assay: Inhibition of cell proliferation, CellTiter-Glo, HCT116; assay type: cell-based; conditions: Homo sapiens, HCT-116, 72 h; Efficacy Example 3 (Table 3), incubation for 3 days
# Method: as §2, §3, §4, §6, §9
# HCC1806 cells = assay: Inhibition of cell proliferation, CellTiter-Glo, HCC1806; assay type: cell-based; conditions: Homo sapiens, HCC1806, 72 h; Efficacy Example 3 (Table 3), incubation for 3 days
# Method: as §2, §3, §4, §6, §9
# [1] = In vivo pharmacokinetics after intragastric administration in mice; conditions: single intragastric administration, 20 mg/kg; for AUC(0-inf) / AUC(0-t) / Cmax / Tmax / half-life: male, ICR, mouse, po, plasma; for Cmax and AUC compared with the control compound SZ-015200: in words
# Method: (§10) Male 1CR mice were divided into different groups with 3 mice in each group, and single intragastric administration was conducted for each group. The compounds were each formulated with 10% DMSO/10% Solutol/80% (2000 Captisol) to reach an appropriate concentration and then administered intragastrically at 20 mg/kg. Blood was taken 5 min, 15 min, 30 min, 1 h, 2 h, 4 h, 6 h, 8 h and 24 h after administration, and then subjected to EDTA-K2 anticoagulation. The concentration of the compound in the plasma was quantitatively detected by an LC-MS/MS method.
# [2] = In vivo pharmacokinetics after intragastric administration in rats; parameters: species or system SD rats; conditions: single intragastric administration, 40 mg/kg; for AUC(0-inf) / AUC(0-t) / Cmax / Tmax / half-life: male, SD, rat, po, plasma; for Cmax and AUC compared with the control compound SZ-015200: in words
# Method: as §10, with “SD rats” for “1CR mice”, “rats” for “mice”, “(20%” for “(2000”, “40” for “20”
# [3] = tested on: human colon cancer cells HCT116 xenograft tumor; assay: In vivo efficacy in subcutaneous xenograft tumor model of human colon cancer cells HCT116; parameters: species or system BALB/c nude mice; conditions: for Tumor inhibition rate (TGI): day 21; for % proliferation percentage of tumor volume (Day 21 after grouping) / Tumor volume (day 21 after grouping): mean value ± standard error; for Effect on inhibiting tumor proliferation compared with the control compound SZ-015200 (in words): HCT116 xenograft, p.o. QD × 21 days; for Anti-tumor effect (in words): SZ-015256: 25 mg/kg and 15 mg/kg treatment groups, SZ-015268 and SZ-015200: 25 mg/kg treatment group
# Method: HCT116 tumor cells used in this test were purchased from ATCC. HCT116 tumor cells were cultured in McCoy's 5a medium containing inactivated 10% fetal bovine serum, 100 U/mL penicillin, 100 μg/mL streptomycin and 2 mM glutamine in an incubator at 37° C./5% CO2. The cells were divided and transferred to other bottles every 3 to 4 days for passaging when the culture bottle was full of cells. The tumor cells in the logarithmic growth phase were used for tumor seeding in vivo.
# HCT116 tumor cells resuspended in serum-free McCoy's 5a culture solution were seeded subcutaneously into the right costal part of male BALB/c nude mice at 5×10^6/0.1 mL. When the tumor grew to 101 mm^3, animals with uniform tumor volume were selected and divided into groups with 8 animals in each group for administration, and the specific administration regimens are shown in Table 6 below.
# Tumor volume: the long and short diameters of the tumor were measured twice every week using a vernier caliper for calculating the tumor volume, and the calculation formula was:
# volume=0.5×long diameter×short diameter^2.
# […]=mean value of relative tumor volume of treatment group/mean value of relative tumor volume of control group×100
# Tumor growth inhibition rate(TGI,%)=(1−T/C)×100
# Statistical analysis between groups was performed for tumor volume using One-Way ANOVA test, and a significant difference was considered to be present when p<0.05.
# [4] = Efficacy Example 2 (Table 2), 72 h incubation
# [5] = Efficacy Example 3 (Table 3), incubation for 3 days
# Chain of CDK7/Cyclin H/MAT1 (P50613 whole entry): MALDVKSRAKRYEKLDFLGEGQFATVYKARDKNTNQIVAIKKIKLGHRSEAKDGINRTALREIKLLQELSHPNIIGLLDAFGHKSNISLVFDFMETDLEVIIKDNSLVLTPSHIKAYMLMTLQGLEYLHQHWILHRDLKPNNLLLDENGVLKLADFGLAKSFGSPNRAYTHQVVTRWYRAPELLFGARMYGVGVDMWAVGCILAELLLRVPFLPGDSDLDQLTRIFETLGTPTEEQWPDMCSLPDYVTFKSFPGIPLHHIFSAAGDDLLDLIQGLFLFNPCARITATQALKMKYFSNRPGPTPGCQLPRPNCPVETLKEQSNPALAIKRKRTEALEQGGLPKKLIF
# Chain of CDK7/Cyclin H/MAT1 (P51946 whole entry partner): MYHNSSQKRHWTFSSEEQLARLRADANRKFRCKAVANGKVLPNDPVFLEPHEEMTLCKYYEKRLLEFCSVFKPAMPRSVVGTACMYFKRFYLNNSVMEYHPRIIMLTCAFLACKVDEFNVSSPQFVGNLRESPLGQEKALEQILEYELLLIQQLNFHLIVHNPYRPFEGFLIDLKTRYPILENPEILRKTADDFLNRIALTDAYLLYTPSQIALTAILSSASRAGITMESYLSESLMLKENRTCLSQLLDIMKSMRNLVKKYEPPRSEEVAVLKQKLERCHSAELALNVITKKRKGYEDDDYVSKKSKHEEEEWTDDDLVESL
# Chain of CDK7/Cyclin H/MAT1 (P51948 whole entry partner): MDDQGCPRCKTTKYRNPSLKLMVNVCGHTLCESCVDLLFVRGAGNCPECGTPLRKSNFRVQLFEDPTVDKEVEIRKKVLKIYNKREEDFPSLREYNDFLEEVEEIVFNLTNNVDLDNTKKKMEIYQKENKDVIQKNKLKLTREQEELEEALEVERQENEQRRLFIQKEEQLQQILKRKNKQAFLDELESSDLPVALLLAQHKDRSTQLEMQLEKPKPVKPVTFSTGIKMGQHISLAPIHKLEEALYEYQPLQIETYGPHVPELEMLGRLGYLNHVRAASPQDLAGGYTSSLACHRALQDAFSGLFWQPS
smiles,measurement,setting,value
"Cc1cc(NC2CCN(C(=O)O[C@H]3CCN(C(=O)/C=C/CN(C)C)C3)CC2)c2ncn(C(C)C)c2n1 [SZ-015095, (S,E)-1-(4-(dimethylamino)but-2-enoyl)pyrrolidin-3-yl 4-((3-isopropyl-5-methyl-3H-imidazo[4,5-b]pyridin-7-yl)amino)piperidine-1-carboxylate]",pIC50,HCC70 cells; [4],6.32
same,pIC50,OVCAR3 cells; [4],6.86
same,pIC50,CDK7/Cyclin H/MAT1,6.89
"Cc1nc(NC2CCN(C(=O)O[C@H]3CCN(C(=O)/C=C/CN(C)C)C3)CC2)n2ncc(C(C)C)c2n1 [SZ-015256, (S,E)-1-(4-(dimethylamino)but-2-enoyl)pyrrolidin-3-yl 4-((8-isopropyl-2-methylpyrazolo[1,5-a][1,3,5]triazin-4-yl)amino)piperidine-1-carboxylate]",pIC50,HCC70 cells; [4],6.76
same,pIC50,HCC70 cells; [5],7.29
same,pIC50,OVCAR3 cells; [4],7.12
same,pIC50,OVCAR3 cells; [5],7.34
same,pIC50,HCT116 cells,7.60
same,pIC50,HCC1806 cells,7.35
same,AUC(0-inf),[1],6380 ng·h/mL
same,AUC(0-t),[1],6260 ng·h/mL
same,Cmax,[1],3380 ng/mL
same,Tmax,[1],0.5 h
same,half-life,[1],1.48 h
same,Cmax and AUC compared with the control compound SZ-015200,[1],significantly higher
same,AUC(0-inf),[2],7880 ng·h/mL
same,AUC(0-t),[2],7830 ng·h/mL
same,Cmax,[2],783 ng/mL
same,Tmax,[2],4.67 h
same,half-life,[2],2.99 h
same,Cmax and AUC compared with the control compound SZ-015200,[2],"The results show that compared with the control compound SZ-015200, the Cmax and the AUC of SZ-015256 and SZ-015268 in rats after single intragastric administration were significantly higher, which indicates that SZ-015256 and SZ-015268 have better pharmacokinetic properties."
same,Tumor inhibition rate (TGI),[3]; 15 mg/kg p.o. QD × 21 days,61.6%
same,% proliferation percentage of tumor volume (Day 21 after grouping),[3]; 15 mg/kg p.o. QD × 21 days,407 ± 40%
same,Tumor volume (day 21 after grouping),[3]; 15 mg/kg p.o. QD × 21 days,402 ± 42 mm^3
same,Tumor inhibition rate (TGI),[3]; 25 mg/kg p.o. QD × 21 days,81.9%
same,% proliferation percentage of tumor volume (Day 21 after grouping),[3]; 25 mg/kg p.o. QD × 21 days,192 ± 38%
same,Tumor volume (day 21 after grouping),[3]; 25 mg/kg p.o. QD × 21 days,201 ± 43 mm^3
same,Effect on inhibiting tumor proliferation compared with the control compound SZ-015200 (in words),[3],stronger effect on inhibiting tumor proliferation
same,Anti-tumor effect (in words),[3],significant anti-tumor effect
same,pIC50,CDK7/Cyclin H/MAT1,7.27
"Cc1nc(NC2CCN(C(=O)O[C@H]3CCN(C(=O)/C=C/CN(C)C)C3)CC2)c2ncc(C(C)C)n2n1 [SZ-015268, (S,E)-1-(4-(dimethylamino)but-2-enoyl)pyrrolidin-3-yl 4-((7-isopropyl-2-methylimidazo[2,1-f][1,2,4]triazin-4-yl)amino)piperidin-1-carboxylate]",pIC50,HCC70 cells; [4],7.24
same,pIC50,HCC70 cells; [5],7.48
same,pIC50,OVCAR3 cells; [4],7.52
same,pIC50,OVCAR3 cells; [5],7.09
same,pIC50,HCT116 cells,7.90
same,pIC50,HCC1806 cells,7.21
same,AUC(0-inf),[1],3150 ng·h/mL
same,AUC(0-t),[1],3100 ng·h/mL
same,Cmax,[1],1540 ng/mL
same,Tmax,[1],0.42 h
same,half-life,[1],1.39 h
same,Cmax and AUC compared with the control compound SZ-015200,[1],not lower
same,AUC(0-inf),[2],4510 ng·h/mL
same,AUC(0-t),[2],4450 ng·h/mL
same,Cmax,[2],543 ng/mL
same,Tmax,[2],4 h
same,half-life,[2],3.92 h
same,Cmax and AUC compared with the control compound SZ-015200,[2],"The results show that compared with the control compound SZ-015200, the Cmax and the AUC of SZ-015256 and SZ-015268 in rats after single intragastric administration were significantly higher, which indicates that SZ-015256 and SZ-015268 have better pharmacokinetic properties."
same,Tumor inhibition rate (TGI),[3]; 25 mg/kg p.o. QD × 21 days,84.3%
same,% proliferation percentage of tumor volume (Day 21 after grouping),[3]; 25 mg/kg p.o. QD × 21 days,167 ± 39%
same,Tumor volume (day 21 after grouping),[3]; 25 mg/kg p.o. QD × 21 days,172 ± 41 mm^3
same,Effect on inhibiting tumor proliferation compared with the control compound SZ-015200 (in words),[3],stronger effect on inhibiting tumor proliferation
same,Anti-tumor effect (in words),[3],significant anti-tumor effect
"Cc1cc(NC2CCN(C(=O)O[C@H]3CCN(C(=O)/C=C/CN(C)C)C3)CC2)c2ncc(C(C)C)n2n1 [SZ-015273, (S,E)-1-(4-(dimethylamino)but-2-enoyl)pyrrolidin-3-yl 4-((3-isopropyl-6-methylimidazo[1,2-b]pyridazin-8-yl)amino)piperidin-1-carboxylate]",pIC50,HCC70 cells; [4],6.54
same,pIC50,OVCAR3 cells; [4],7.50
same,pIC50,CDK7/Cyclin H/MAT1,7.35
"CCc1nc(NC2CCN(C(=O)O[C@H]3CCN(C(=O)/C=C/CN(C)C)C3)CC2)c2ncn(C(C)C)c2n1 [SZ-015310, (S,E)-1-(4-(dimethylamino)but-2-enoyl)pyrrolidin-3-yl 4-((2-ethyl-9-isopropyl-9H-purin-6-yl)amino)piperidine-1-carboxylate]",pIC50,HCC70 cells; [4],7.53
same,pIC50,OVCAR3 cells; [4],7.23
"CC(C)c1cc(NC2CCN(C(=O)O[C@H]3CCN(C(=O)/C=C/CN(C)C)C3)CC2)c2ncn(C(C)C)c2n1 [SZ-015319, (S,E)-1-(4-(dimethylamino)but-2-enoyl)pyrrolidin-3-yl 4-((3,5-diisopropyl-3H-imidazo[4,5-b]pyridin-7-yl)amino)piperidine-1-carboxylate]",pIC50,HCC70 cells; [4],7.30
same,pIC50,OVCAR3 cells; [4],7.14
"Cc1cc2c(ncn2C(C)C)c(NC2CCN(C(=O)O[C@H]3CCN(C(=O)/C=C/CN(C)C)C3)CC2)n1 [SZ-015272, (S,E)-1-(4-(dimethylamino)but-2-enoyl)pyrrolidin-3-yl 4-((1-isopropyl-6-methyl-1H-imidazo[4,5-c]pyridin-4-yl)amino)piperidine-1-carboxylate]",pIC50,HCC70 cells; [4],6.02
same,pIC50,OVCAR3 cells; [4],6.34
same,pIC50,CDK7/Cyclin H/MAT1,6.56
Cc1cn2c(C(C)C)cnc2c(NC2CCN(C(=O)O[C@H]3CCN(C(=O)/C=C/CN(C)C)C3)CC2)n1 [SZ-015274],pIC50,HCC70 cells; [4],6.73
same,pIC50,OVCAR3 cells; [4],6.82
same,pIC50,CDK7/Cyclin H/MAT1,6.71
Cc1nc(NC2CCN(C(=O)O[C@H]3CCN(C(=O)/C=C/CN(C)C)C3)CC2)c2ncc(C(C)C)n2n1 [SZ-0015268],pIC50,CDK7/Cyclin H/MAT1,7.63
"CC(C)c1cnn2c(NC3CCN(C(=O)O[C@H]4CCN(C(=O)/C=C/CN(C)C)C4)CC3)nc(NC3CC3)nc12 [SZ-015331, (S,E)-1-(4-(dimethylamino)but-2-enoyl)pyrrolidin-3-yl 4-((2-(cyclopropylamino)-8-isopropylpyrazolo[1,5-a][1,3,5]triazin-4-yl)amino)piperidine-1-carboxylate]",pIC50,HCC70 cells; [4],7.15
same,pIC50,OVCAR3 cells; [4],7.43
"CC(C)c1cnn2c(NCc3ccccc3)cc(NC[C@H]3CCNC[C@@H]3O)nc12 [CT7001, reference compound]",pIC50,HCC70 cells; [4],6.51
same,pIC50,OVCAR3 cells; [4],6.33
"COCCNc1cc(NC2CCN(C(=O)O[C@H]3CCN(C(=O)/C=C/CN(C)C)C3)CC2)c2ncn(C(C)C)c2n1 [SZ-015311, (S,E)-1-(4-(dimethylamino)but-2-enoyl)pyrrolidin-3-yl 4-((3-isopropyl-5-((2-methoxyethyl)amino)-3H-imidazo[4,5-b]pyridin-7-yl)amino)piperidine-1-carboxylate]",pIC50,HCC70 cells; [4],7.02
same,pIC50,OVCAR3 cells; [4],7.00
